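Step 1: Grow cells in 96-well plates. Step 2: Expose to compound for 48 hours at 5 concentrations. Step 3: Interpolate endpoints linearly; if unreached, use highest concentration. TGI: total growth inhibition.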
Columns and labels:
Assay in all cases: NCI-60 cell line screen, 48 h
786-0 renal = tested on: 786-0 renal
A498 renal = tested on: A498 renal
A549 NSCLC = tested on: A549 NSCLC
ACHN renal = tested on: ACHN renal
CAKI-1 renal = tested on: CAKI-1 renal
CCRF-CEM leukemia = tested on: CCRF-CEM leukemia
COLO 205 colon = tested on: COLO 205 colon
DLD-1 colon = tested on: DLD-1 colon
DMS 114 small cell lung = tested on: DMS 114 small cell lung
DMS 273 small cell lung = tested on: DMS 273 small cell lung
EKVX NSCLC = tested on: EKVX NSCLC
HCC-2998 colon = tested on: HCC-2998 colon
HCT-116 colon = tested on: HCT-116 colon
HCT-15 colon = tested on: HCT-15 colon
HL-60(TB) leukemia = tested on: HL-60(TB) leukemia
HOP-18 NSCLC = tested on: HOP-18 NSCLC
HOP-62 NSCLC = tested on: HOP-62 NSCLC
HOP-92 NSCLC = tested on: HOP-92 NSCLC
HT29 colon = tested on: HT29 colon
IGROV1 ovarian = tested on: IGROV1 ovarian
K-562 leukemia = tested on: K-562 leukemia
KM12 colon = tested on: KM12 colon
KM20L2 colon = tested on: KM20L2 colon
LXFL 529 NSCLC = tested on: LXFL 529 NSCLC
M14 melanoma = tested on: M14 melanoma
M19-MEL melanoma = tested on: M19-MEL melanoma
MALME-3M melanoma = tested on: MALME-3M melanoma
MOLT-4 leukemia = tested on: MOLT-4 leukemia
NCI-H226 lung = tested on: NCI-H226 lung
NCI-H23 lung = tested on: NCI-H23 lung
NCI-H460 lung = tested on: NCI-H460 lung
NCI-H522 lung = tested on: NCI-H522 lung
OVCAR-3 ovarian = tested on: OVCAR-3 ovarian
OVCAR-4 ovarian = tested on: OVCAR-4 ovarian
OVCAR-5 ovarian = tested on: OVCAR-5 ovarian
OVCAR-8 ovarian = tested on: OVCAR-8 ovarian
RPMI-8226 leukemia = tested on: RPMI-8226 leukemia
SF-268 CNS = tested on: SF-268 CNS
SF-295 CNS = tested on: SF-295 CNS
SF-539 CNS = tested on: SF-539 CNS
SK-MEL-28 melanoma = tested on: SK-MEL-28 melanoma
SK-MEL-5 melanoma = tested on: SK-MEL-5 melanoma
SK-OV-3 ovarian = tested on: SK-OV-3 ovarian
SN12C renal = tested on: SN12C renal
SNB-19 CNS = tested on: SNB-19 CNS
SNB-75 CNS = tested on: SNB-75 CNS
SNB-78 CNS = tested on: SNB-78 CNS
SW-620 colon = tested on: SW-620 colon
TK-10 renal = tested on: TK-10 renal
U251 CNS = tested on: U251 CNS
UACC-257 melanoma = tested on: UACC-257 melanoma
UACC-62 melanoma = tested on: UACC-62 melanoma
UO-31 renal = tested on: UO-31 renal

CCOC(=O)/C(C#N)=C(O)/C(=C/c1ccccc1Cl)NC(=O)c1ccccc1
TGI (786-0 renal): > 100 µM
TGI (A498 renal): > 100 µM
TGI (A549 NSCLC): > 100 µM
TGI (ACHN renal): > 100 µM
TGI (CAKI-1 renal): > 100 µM
TGI (CCRF-CEM leukemia): > 100 µM
TGI (COLO 205 colon): > 100 µM
TGI (DLD-1 colon): > 100 µM
TGI (DMS 114 small cell lung): > 100 µM
TGI (DMS 273 small cell lung): > 100 µM
TGI (EKVX NSCLC): > 100 µM
TGI (HCC-2998 colon): > 100 µM
TGI (HCT-116 colon): > 100 µM
TGI (HCT-15 colon): > 100 µM
TGI (HL-60(TB) leukemia): > 100 µM
TGI (HOP-18 NSCLC): > 100 µM
TGI (HOP-62 NSCLC): > 100 µM
TGI (HOP-92 NSCLC): > 100 µM
TGI (HT29 colon): > 100 µM
TGI (IGROV1 ovarian): > 100 µM
TGI (K-562 leukemia): > 100 µM
TGI (KM12 colon): > 100 µM
TGI (KM20L2 colon): > 100 µM
TGI (LXFL 529 NSCLC): > 100 µM
TGI (M14 melanoma): > 100 µM
TGI (M19-MEL melanoma): > 100 µM
TGI (MALME-3M melanoma): > 100 µM
TGI (MOLT-4 leukemia): > 100 µM
TGI (NCI-H226 lung): > 100 µM
TGI (NCI-H23 lung): > 100 µM
TGI (NCI-H460 lung): > 100 µM
TGI (NCI-H522 lung): > 100 µM
TGI (OVCAR-3 ovarian): > 100 µM
TGI (OVCAR-4 ovarian): > 100 µM
TGI (OVCAR-5 ovarian): > 100 µM
TGI (OVCAR-8 ovarian): > 100 µM
TGI (RPMI-8226 leukemia): 55.1 µM
TGI (SF-268 CNS): > 100 µM
TGI (SF-295 CNS): > 100 µM
TGI (SF-539 CNS): > 100 µM
TGI (SK-MEL-28 melanoma): > 100 µM
TGI (SK-MEL-5 melanoma): > 100 µM
TGI (SK-OV-3 ovarian): > 100 µM
TGI (SN12C renal): > 100 µM
TGI (SNB-19 CNS): > 100 µM
TGI (SNB-75 CNS): > 100 µM
TGI (SNB-78 CNS): > 100 µM
TGI (SW-620 colon): 52.2 µM
TGI (TK-10 renal): > 100 µM
TGI (U251 CNS): > 100 µM
TGI (UACC-257 melanoma): > 100 µM
TGI (UACC-62 melanoma): > 100 µM
TGI (UO-31 renal): > 100 µM

Reference: PubChem BioAssay (NCI)
